The target in test [1] is T1, ΔF508-CFTR (Homo sapiens, UniProt P13569, DEL508-508).
T1 construct: host or cells: CFBE41o-, doxycycline-inducible
Description: CFTR cell surface levels using HRP-tagged ΔF508-CFTR expressing CFBE cells, intrinsic corrector capacity. The test is classed as cell-based. Also on record: % Activation: concentration or dose not given beside the values. Particulars: HRP-tagged ΔF508-CFTR expressing CFBE41o- cells, compound alone (intrinsic corrector capacity), 20 hours at 33° C.; for pEC50: read-out: EC50. Summed up:
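Read-out: chemiluminescent HRP activity of ECL4-HRP-tagged ΔF508-CFTR at the cell surface, 15 min substrate in dark. Normalized as 100×(sample−DMSO)/(positive control−DMSO).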

For test [2], the target named is T1, ΔF508-CFTR. Description: CFTR cell surface levels using HRP-tagged ΔF508-CFTR expressing CFBE cells, in the presence of a co-corrector. The test is classed as cell-based. Conditions: HRP-tagged ΔF508-CFTR CFBE cells, in the presence of 3 μM co-corrector; for pEC50: read-out: EC50. Summed up: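 Chemiluminescent read-out of surface HRP (15 min, dark) after PBS washes. Activity is normalized as 100×(sample−DMSO)/(3 μM co-corrector alone−DMSO).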

pEC50: −log10 of the molar value.

T1 sequence (P13569 with tags, fused parts or gaps DEL508-508): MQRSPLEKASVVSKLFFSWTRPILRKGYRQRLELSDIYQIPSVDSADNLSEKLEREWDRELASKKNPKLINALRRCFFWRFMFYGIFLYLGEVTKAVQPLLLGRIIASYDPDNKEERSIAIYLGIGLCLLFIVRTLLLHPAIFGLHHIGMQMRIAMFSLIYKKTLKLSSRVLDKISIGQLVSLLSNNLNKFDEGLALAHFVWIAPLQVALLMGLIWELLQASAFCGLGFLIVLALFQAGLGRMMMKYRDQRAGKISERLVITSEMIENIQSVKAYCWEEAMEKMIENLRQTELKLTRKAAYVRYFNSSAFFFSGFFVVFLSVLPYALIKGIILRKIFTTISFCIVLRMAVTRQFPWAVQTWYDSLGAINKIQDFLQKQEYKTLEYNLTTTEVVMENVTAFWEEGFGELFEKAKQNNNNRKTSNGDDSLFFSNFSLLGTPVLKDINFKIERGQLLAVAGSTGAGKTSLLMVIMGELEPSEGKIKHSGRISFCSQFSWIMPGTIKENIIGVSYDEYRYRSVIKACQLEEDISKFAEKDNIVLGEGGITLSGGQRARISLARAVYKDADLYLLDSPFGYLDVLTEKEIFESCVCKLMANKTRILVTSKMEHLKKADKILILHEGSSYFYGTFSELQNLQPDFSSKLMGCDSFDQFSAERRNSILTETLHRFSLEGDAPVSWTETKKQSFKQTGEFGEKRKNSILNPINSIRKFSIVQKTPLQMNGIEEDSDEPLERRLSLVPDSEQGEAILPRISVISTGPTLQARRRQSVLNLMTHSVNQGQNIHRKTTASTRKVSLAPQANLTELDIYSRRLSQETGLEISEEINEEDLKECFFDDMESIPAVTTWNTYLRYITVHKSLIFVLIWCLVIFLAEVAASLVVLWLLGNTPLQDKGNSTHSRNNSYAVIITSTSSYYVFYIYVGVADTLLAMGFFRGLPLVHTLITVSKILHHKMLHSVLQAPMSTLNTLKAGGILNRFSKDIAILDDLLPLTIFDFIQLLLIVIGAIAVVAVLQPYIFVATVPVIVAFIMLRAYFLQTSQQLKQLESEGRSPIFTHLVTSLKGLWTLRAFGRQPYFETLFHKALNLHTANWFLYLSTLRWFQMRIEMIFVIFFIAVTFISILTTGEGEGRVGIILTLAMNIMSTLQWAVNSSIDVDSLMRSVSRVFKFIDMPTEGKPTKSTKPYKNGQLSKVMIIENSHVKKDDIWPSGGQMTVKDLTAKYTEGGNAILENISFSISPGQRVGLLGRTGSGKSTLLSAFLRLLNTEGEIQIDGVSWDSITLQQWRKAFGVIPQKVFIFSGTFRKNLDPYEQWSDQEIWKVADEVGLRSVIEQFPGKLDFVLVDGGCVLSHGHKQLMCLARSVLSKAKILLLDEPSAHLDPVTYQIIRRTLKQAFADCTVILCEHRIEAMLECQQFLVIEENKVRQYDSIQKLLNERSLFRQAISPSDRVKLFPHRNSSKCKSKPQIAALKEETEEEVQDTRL

Turning to `CC(C)N1CCN(C2CCN(c3cc(C(=O)NS(=O)(=O)N(C)C)nc4c3c(C3CCC3)nn4C3CCCCC3)CC2)CC1` [Compound 553, 3-cyclobutyl-1-cyclohexyl-N-(dimethylsulfamoyl)-4-{4-[4-(propan-2-yl)piperazin-1-yl]piperidin-1-yl}-1H-pyrazolo[3,4-b]pyridine-6-carboxamide], in test [1], the “% Activation” value was determined as 293% and the negative logarithm of the EC50 (pEC50) is 5.76. Moreover, in test [2], the “% Activation” value was 494.3% and the pEC50 was 6.63.
As for `CCCN(C)S(=O)(=O)NC(=O)c1cc(N2CCC(N3CCN(C4CC4)CC3)CC2)c2c(C3CCC3)nn(-c3ccccc3)c2n1` [Compound 554, 3-cyclobutyl-4-[4-(4-cyclopropylpiperazin-1-yl)piperidin-1-yl]-N-[methyl(propyl)sulfamoyl]-1-phenyl-1H-pyrazolo[3,4-b]pyridine-6-carboxamide], the results for the “% Activation” value in test [1] and in test [2] were 269.45% and 481%, respectively. Further, the values for the pEC50 in test [1] and in test [2] were 6.97 and 7.25, respectively.
Consider `CS(=O)(=O)NC(=O)c1cc(N2CCC(N3CCN(C4CC4)CC3)CC2)c2c(C3CCC3)nn(-c3ccccc3)c2n1` [Compound 556, 3-cyclobutyl-4-[4-(4-cyclopropylpiperazin-1-yl)piperidin-1-yl]-N-(methanesulfonyl)-1-phenyl-1H-pyrazolo[3,4-b]pyridine-6-carboxamide], for which the results for the “% Activation” value in test [1] and in test [2] were 386% and 595.8%, respectively. Besides, the negative-log EC50 (pEC50) in test [1] was 7.19; in test [2], 6.87.
The matching figures for `CC1(S(=O)(=O)NC(=O)c2cc(N3CCC(N4CCN(C5CC5)CC4)CC3)c3c(C4CCC4)nn(-c4ccccc4)c3n2)CC1` [Compound 557, 3-cyclobutyl-4-[4-(4-cyclopropylpiperazin-1-yl)piperidin-1-yl]-N-(1-methylcyclopropane-1-sulfonyl)-1-phenyl-1H-pyrazolo[3,4-b]pyridine-6-carboxamide]: 248.5%, 474.4%, 6.60 and 6.93.
On to `CN(C)S(=O)(=O)NC(=O)c1cc(N2CCC(N3CCC(C(F)(F)F)C3)CC2)c2c(C3CCC3)nn(-c3ccc(F)cc3)c2n1` (stereo not drawn) [Compound 560, 3-cyclobutyl-N-(dimethylsulfamoyl)-1-(4-fluorophenyl)-4-{4-[3-(trifluoromethyl)pyrrolidin-1-yl]piperidin-1-yl}-1H-pyrazolo[3,4-b]pyridine-6-carboxamide], for which, in test [1], the “% Activation” value was found to be 260.4% and the pEC50 was 7.02. Moreover, in test [2], the “% Activation” value was 544.45% and the pEC50 is 7.18.
With `CN(C)S(=O)(=O)NC(=O)c1cc(N2CCC(N3CCCC(F)C3)CC2)c2c(C3CCC3)nn(-c3ccc(F)cc3)c2n1` (stereo not drawn) [Compound 563, 3-cyclobutyl-N-(dimethylsulfamoyl)-4-(3-fluoro[1,4'-bipiperidin]-1'-yl)-1-(4-fluorophenyl)-1H-pyrazolo[3,4-b]pyridine-6-carboxamide], the “% Activation” value in test [1] amounted to 298.9%; in test [2] it was 542.9%. The pEC50 in test [1] is 6.70; in test [2] it was 6.95.
For `CS(=O)(=O)NC(=O)c1cc(N2CCC(N3CCC(C(F)(F)F)C3)CC2)c2c(C3CCC3)nn(-c3ccc(F)cc3)c2n1` (stereo not drawn) [Compound 564, 3-cyclobutyl-1-(4-fluorophenyl)-N-(methanesulfonyl)-4-{4-[3-(trifluoromethyl)pyrrolidin-1-yl]piperidin-1-yl}-1H-pyrazolo[3,4-b]pyridine-6-carboxamide] the same measures were 361.35%, 587.4%, 6.93 and 7.39.
Take `CS(=O)(=O)NC(=O)c1cc(N2CCC(N3CCC(C#N)C3)CC2)c2c(C3CCC3)nn(-c3ccc(F)cc3)c2n1` (stereo not drawn) [Compound 565, 4-[4-(3-cyanopyrrolidin-1-yl)piperidin-1-yl]-3-cyclobutyl-1-(4-fluorophenyl)-N-(methanesulfonyl)-1H-pyrazolo[3,4-b]pyridine-6-carboxamide]: the “% Activation” value in test [1] is 373.15%; in test [2], 637.53%. Further, the pEC50 is 6.74 in test [1] and 7.16 in test [2].
The matching figures for `CS(=O)(=O)NC(=O)c1cc(N2CCC(N3CCCC(C#N)C3)CC2)c2c(C3CCC3)nn(-c3ccc(F)cc3)c2n1` (stereo not drawn) [Compound 566, 4-(3-cyano[1,4'-bipiperidin]-1'-yl)-3-cyclobutyl-1-(4-fluorophenyl)-N-(methanesulfonyl)-1H-pyrazolo[3,4-b]pyridine-6-carboxamide]: 365.1%, 708.8%, 6.95 and 6.40.
For the compound `CS(=O)(=O)NC(=O)c1cc(N2CCC(N3CCCC(F)C3)CC2)c2c(C3CCC3)nn(-c3ccc(F)cc3)c2n1` (stereo not drawn) [Compound 567, 3-cyclobutyl-4-(3-fluoro[1,4'-bipiperidin]-1'-yl)-1-(4-fluorophenyl)-N-(methanesulfonyl)-1H-pyrazolo[3,4-b]pyridine-6-carboxamide], in test [1], the “% Activation” value is recorded as 312.2% and the negative-log EC50 (pEC50) is 6.86. Also, in test [2], the “% Activation” value worked out at 539.8% and the negative-log EC50 (pEC50) was 7.25.
With `O=C(NS(=O)(=O)N1CCCCC1)c1cc(N2CCC(N3CCOCC3)CC2)c2c(C3CCC3)nn(-c3ccc(F)cc3)c2n1` [Compound 568, 3-cyclobutyl-1-(4-fluorophenyl)-4-[4-(morpholin-4-yl)piperidin-1-yl]-N-(piperidine-1-sulfonyl)-1H-pyrazolo[3,4-b]pyridine-6-carboxamide], in test [1], the “% Activation” value was 240.65% and the pEC50 is 7.11. In test [2], the “% Activation” value stood at 461% and the negative logarithm of the EC50 (pEC50) was 7.33.
For the compound `O=C(NS(=O)(=O)N1CC(F)C1)c1cc(N2CCC(N3CCOCC3)CC2)c2c(C3CCC3)nn(-c3ccc(F)cc3)c2n1` [Compound 569, 3-cyclobutyl-N-(3-fluoroazetidine-1-sulfonyl)-1-(4-fluorophenyl)-4-[4-(morpholin-4-yl)piperidin-1-yl]-1H-pyrazolo[3,4-b]pyridine-6-carboxamide], the “% Activation” value in test [1] was determined as 220.77%; in test [2], 436.13%. The pEC50 was 6.95 in test [1] and 7.05 in test [2].
`CN(C)S(=O)(=O)NC(=O)c1cc(N2CCC(N3CCCC(C(F)(F)F)C3)CC2)c2c(C3CCC3)nn(-c3ccc(F)cc3)c2n1` (stereo not drawn) [Compound 571, 3-cyclobutyl-N-(dimethylsulfamoyl)-1-(4-fluorophenyl)-4-[3-(trifluoromethyl)[1,4'-bipiperidin]-1'-yl]-1H-pyrazolo[3,4-b]pyridine-6-carboxamide]: in test [1], the “% Activation” value is given as 268.15% and the pEC50 was 6.89. Also, in test [2], the “% Activation” value is 487.9% and the pEC50 was 7.11.
For `COC1CCCN(C2CCN(c3cc(C(=O)NS(=O)(=O)N(C)C)nc4c3c(C3CCC3)nn4-c3ccc(F)cc3)CC2)C1` (stereo not drawn) [Compound 572, 3-cyclobutyl-N-(dimethylsulfamoyl)-1-(4-fluorophenyl)-4-(3-methoxy[1,4'-bipiperidin]-1'-yl)-1H-pyrazolo[3,4-b]pyridine-6-carboxamide] the same measures were 237.55%, 6.53, 412.9% and 6.65.
In the case of `CN(C)S(=O)(=O)NC(=O)c1cc(N2CCC(N3CCOC(C)(C)C3)CC2)c2c(C3CCC3)nn(-c3ccc(F)cc3)c2n1` [Compound 573, 3-cyclobutyl-4-[4-(2,2-dimethylmorpholin-4-yl)piperidin-1-yl]-N-(dimethylsulfamoyl)-1-(4-fluorophenyl)-1H-pyrazolo[3,4-b]pyridine-6-carboxamide], in test [1], the “% Activation” value was 270.53% and the pEC50 was 6.98. For the same compound, in test [2], the “% Activation” value is 467.57% and the pEC50 was 7.23.
Take `CC(=O)NCCS(=O)(=O)NC(=O)c1cc(N2CCC(N3CCOCC3)CC2)c2c(C3CCC3)nn(-c3ccc(F)cc3)c2n1` [Compound 574, N-(2-acetamidoethanesulfonyl)-3-cyclobutyl-1-(4-fluorophenyl)-4-[4-(morpholin-4-yl)piperidin-1-yl]-1H-pyrazolo[3,4-b]pyridine-6-carboxamide]: the “% Activation” value in test [1] stood at 129.9%; in test [2] it was 283.3%. Also, the figures for the negative logarithm of the EC50 (pEC50) in test [1] and in test [2] were 5.56 and 6.27, respectively.
As to `COC[C@H]1CCCN1S(=O)(=O)NC(=O)c1cc(N2CCC(N3CCOCC3)CC2)c2c(C3CCC3)nn(-c3ccc(F)cc3)c2n1` [Compound 577, 3-cyclobutyl-1-(4-fluorophenyl)-N-[(2R)-2-(methoxymethyl)pyrrolidine-1-sulfonyl]-4-[4-(morpholin-4-yl)piperidin-1-yl]-1H-pyrazolo[3,4-b]pyridine-6-carboxamide], in test [1], the “% Activation” value is 187.15% and the pEC50 was 6.59. Besides, in test [2], the “% Activation” value was determined as 379.3% and the negative-log EC50 (pEC50) is 6.98.
As to `CN(C1CCOCC1)S(=O)(=O)NC(=O)c1cc(N2CCC(N3CCOCC3)CC2)c2c(C3CCC3)nn(-c3ccc(F)cc3)c2n1` [Compound 579, 3-cyclobutyl-1-(4-fluorophenyl)-N-[methyl(oxan-4-yl)sulfamoyl]-4-[4-(morpholin-4-yl)piperidin-1-yl]-1H-pyrazolo[3,4-b]pyridine-6-carboxamide], in test [1], the “% Activation” value is reported as 205% and the negative-log EC50 (pEC50) was 6.42. In test [2], the “% Activation” value came to 420.5% and the negative logarithm of the EC50 (pEC50) was 6.50.

These data come from US10259810B2, “N-sulfonylated pyrazolo[3,4-b]pyridin-6-carboxamides and method of use” (AbbVie S.à.r.l., priority 2015, dated 2019).
